SMILES strings stand for the structures. Counter-ions that a name gives are not always drawn.

This note sets out measurements from patent US6743810B2, “Indol-3-yl derivatives” (Merck Patent GmbH, priority 2000, dated 2004).

Broadly, the melting point is the temperature, or range, at which the solid turns liquid. Consider `O=C(O)C[C@@H](c1ccccc1)c1c[nH]c2cc(OCCCNc3ccccn3)ccc12` (as salt: salt) [compound 46, (3S)-3-Phenyl-3-{6-[3-(pyridin-2-ylamino)propoxy]indol-3-yl}propionic acid], for which the melting point came out at 137 °C.

For the compound `O=C(O)CC(c1ccccc1)c1c[nH]c2cc(OCCCNc3ccccn3)ccc12` (centres unmarked) (as salt: trifluoroacetate) [compound 8, 3-Phenyl-3-{6-[3-(pyridin-2-ylamino)propoxy]indol-3-yl}propionic acid], the melting point was 232 °C (dec.).
